Measurements published in PMC5789083, “Mechanisms driving the antibacterial and antibiofilm properties of Hp1404 and its analogue peptides against multidrug-resistant Pseudomonas aeruginosa” (Scientific Reports, 2018).
≈ marks a conversion by molar mass, not a printed value. Like-named read-outs stand apart in the source and are kept apart here.

Columns and labels:
[1] = test system: Pseudomonas aeruginosa and MRPA strains; assay: microbe, parasite or virus in culture; format: cell-based; details: Pseudomonas aeruginosa, broth micro-dilution, 37 °C, 18–24 h
Source text: Gram-negative (Pseudomonas aeruginosa ATCC 27853) bacterial strains were obtained from the ATCC (American Type Culture Collection; Manassas, VA, USA). Multidrug-resistant strains (Pseudomonas aeruginosa 138, 431, 434, 557, 559, 778, 1034, 1162, 3290, 3399, 3592, 3904, 4007, 4319, 4891, 5018, and 671973) were obtained from the Chonnam National University Hospital (Gwangju, South Korea).
We examined the activity of each peptide against both pseudomonas aeruginosa and multidrug-resistant strains. The minimal inhibitory concentrations (MICs) of peptides were determined using the broth micro-dilution assay as described previously. Briefly, bacterial strains were cultivated with shaking overnight at 37 °C. The next day, they were diluted to a density of 2 × 10^5 CFU/mL with growth medium. Peptides were serially diluted with 10 mM sodium phosphate buffer. 50 µL bacterial aliquots were mixed with an equal volume of peptide solution, and incubated at 37 °C for 18–24 h. Inhibition of bacterial growth was determined by measuring the absorbance at 600 nm using a Versa Max microplate reader (Molecular Devices, Sunnyvale, CA, USA). The test was performed in triplicate.

[2] = test system: P. aeruginosa strains (biofilm formation); format: cell-based, Pseudomonas aeruginosa; details: 24 h, 37 °C, crystal violet OD595
Description: To evaluate the ability of bacterial strains to form biofilms either in the absence or presence of peptides, antibiotic-susceptible P. aeruginosa (ATCC 27853), and various strains of MDR P. aeruginosa were cultured in nutrient broth (NB). […]. The biofilms were fixed with 100% methanol for 15 min, stained with 0.1% crystal violet (CV) for 1 h, and rinsed three times with distilled water (dH2O). After the addition of 95% ethanol, biofilm mass was quantified by measuring OD at 595 nm using a Versa-Max microplate ELISA reader (Molecular Devices). Results were expressed as the percentage of biofilm formed with respect to the control. […] All experiments were performed at least in triplicate.

[3] = test system: P. aeruginosa 1034 biofilm; assay: LIVE/DEAD BacLight (SYTO9/PI) staining of biofilms; format: cell-based, Pseudomonas aeruginosa; details: even at 400 µM; P. aeruginosa 1034, 24 h, 37 °C
Description: Visualization of the remaining bacteria in the biofilm was achieved using the LIVE/DEAD BacLight Bacterial Viability Kit (Molecular Probes, Eugene, OR, USA), and an IX71 inverted fluorescence microscope (Olympus, Tokyo, Japan) was used for observation[58],[59]. Briefly, bacterial suspensions (5 × 10^5 CFU/mL) were incubated with 0.5× MBIC or 1× MBIC of the peptides, for 24 h at 37 °C. Following incubation, biofilms were stained with pre-mixed dye (SYTO-9 and propidium iodide) for 30 min in the dark; images were obtained using the aforementioned microscope.

P. aeruginosa 1034 = format: in vivo; details: BALB/c mice, intradermal P. aeruginosa 1034
Description: BALB/c mice (6 weeks old) were used in this study. The mice were shaved and intradermally injected with 20 µl of P. aeruginosa (1 × 10^8 CFU/ml) in PBS.

SMILES: O=C(O)c1cn(C2CC2)c2cc(N3CCNCC3)c(F)cc2c1=O [Ciprofloxacin, ciprofloxacin, reference compound]
- MIC ([1]; ATCC27853, P. aeruginosa ATCC 27853, 2 × 10^5 CFU/mL, A600, triplicate): 1.56 µM (≈ 0.517 µg/mL)
- MIC ([1]; P. aeruginosa 138 (multidrug-resistant), triplicate): > 400 µM
- MIC ([1]; P. aeruginosa 431 (multidrug-resistant), triplicate): > 400 µM
- MIC ([1]; P. aeruginosa 434 (multidrug-resistant), triplicate): > 400 µM
- MIC ([1]; P. aeruginosa 557 (multidrug-resistant), triplicate): > 400 µM
- MIC ([1]; P. aeruginosa 559 (multidrug-resistant), triplicate): > 400 µM
- MIC ([1]; P. aeruginosa 778 (multidrug-resistant), triplicate): > 400 µM
- MIC ([1]; P. aeruginosa 1034 (multidrug-resistant), triplicate): > 400 µM
- MIC ([1]; P. aeruginosa 1162 (multidrug-resistant), triplicate): > 400 µM
- MIC ([1]; P. aeruginosa 3290 (multidrug-resistant), triplicate): > 400 µM
- MIC ([1]; P. aeruginosa 3399 (multidrug-resistant), triplicate): > 400 µM
- MIC ([1]; P. aeruginosa 3543 (multidrug-resistant), triplicate): 400 µM (≈ 133 µg/mL)
- MIC ([1]; P. aeruginosa 3592 (multidrug-resistant), triplicate): > 400 µM
- MIC ([1]; P. aeruginosa 3904 (multidrug-resistant), triplicate): 400 µM (≈ 133 µg/mL)
- MIC ([1]; P. aeruginosa 4007 (multidrug-resistant), triplicate): > 400 µM
- MIC ([1]; P. aeruginosa 4319 (multidrug-resistant), triplicate): > 400 µM
- MIC ([1]; P. aeruginosa 4891 (multidrug-resistant), triplicate): > 400 µM
- MIC ([1]; P. aeruginosa 5018 (multidrug-resistant), triplicate): > 400 µM
- MIC ([1]; P. aeruginosa 671973 (multidrug-resistant), triplicate): 100 µM (≈ 33.1 µg/mL)
- MBIC ([2]; P. aeruginosa 434): >400 µM
- MBIC ([2]; P. aeruginosa 559): >400 µM
- MBIC ([2]; P. aeruginosa 778): >400 µM
- MBIC ([2]; P. aeruginosa 1034): >400 µM
- MBIC ([2]; P. aeruginosa 1162): >400 µM
- MBIC ([2]; P. aeruginosa 3399): >400 µM
- MBIC ([2]; P. aeruginosa 3543): >400 µM
- MBIC ([2]; P. aeruginosa 4007): >400 µM
- biofilm formation by the MRPA strain (live/dead staining) [3]: did not inhibit biofilm formation
- killing of bacteria in infected skin (P. aeruginosa 1034; day 7): did not kill the bacteria
- decrease in number of colonies (P. aeruginosa 1034; until 4 days): about 60%
